# Measurements from patent US7455859B2, “Highly concentrated bromine compositions and methods of preparation” (Enviro Tech Chemical Services, Inc., priority 2003, dated 2008).
# “Also recorded” adds a separate entry of the source.
# Columns and labels:
# Pseudomonas aeruginosa = assay: Biocidal performance, plate counting of viable bacteria (Example 20); type: cell-based; details: nominal 0.2 ppm total halogen as Cl2, phosphate buffer pH 8.5, 10 minutes at 35° C.
# Description: The biocidal performance of the liquid composition of the present invention was compared to a solution of sodium bromide activated using an equimolar amount of sodium hypochlorite bleach, and a solution prepared from 1-bromo-3-chloro-5,5-dimethylhydantoin (BCDMH). Sterile phosphate buffer samples (pH 8.5) were inoculated with Pseudomonas aeruginosa to give a concentration of approximately 5×10^6 bacteria/ml and then challenged with the test systems at a nominal concentration of 0.2 ppm total halogen (as Cl2).
# After a contact time of 10 minutes at 35° C., an aliquot of sodium thiosulfate was added to each sample to neutralize the halogen. The level of viable bacteria in each sample was determined by plate counting. Plates were incubated at 35° C. for 48 hours.
# [1] = cited from earlier work
# [2] = Heating of crystals in ceramic crucible on hot plate (Example 23); type: physicochemical; details: towel-dried crystals heated on a hot plate
# Description: Another large portion of the crystalline mass was dried with a paper towel and placed in a ceramic crucible that was heated on a hot plate.
# [3] = Dissolution of crystalline bromine-containing solid in water; type: physicochemical; details: crystalline solid dissolved in water
# Description: The resulting slurry was stirred as solid sodium hydroxide pellets were charged to the reaction flask. […] As the reaction proceeded, a fine powdery precipitate developed which was removed by vacuum filtration. […] Iodometric titration of the resulting golden yellow solution was used to determine its Br2 content of 27.2% (or 12.1% as Cl2). Within a few minutes, this highly concentrated bromine solution started to turn turbid as crystals began to form. The crystallizing solution was chilled in an ice bath to expedite the development of the crystals. A large crop of yellow crystalline material was separated by vacuum filtration, and the mother liquors were retitrated iodometrically. […] There were no insoluble residues. Iodometric titration of resulting solutions was used to calculate that the crystalline solid contained 29.9% Br2 (13.1% as Cl2).
# To a stirred reaction flask containing 40% sodium bromide solution was added solid sulfamic acid (82.3 g). The resultant slurry was stirred as 50% sodium hydroxide (60.2 g) was introduced. […] However, the reaction medium became very viscous, and this hampered the mixing efficiency, so deionized water (35.8 g) was added to thin the mixture. The fine powdery precipitate that developed was removed by vacuum filtration. […] The mother liquors were determined to have a bromine content of 20.9% as Br2 (9.3% as Cl2) by iodometric titration. […]
# [4] = Storage stability of anhydrous N-bromosulfamate sodium salt in vacuum dessicator (Example 24); type: physicochemical; details: three months of storage at room temperature in vacuum dessicator
# Procedure: A further portion of the towel dried crystals from Example 17 was dehydrated by placing in a vacuum dessicator containing molecular sieves. After 15 days, a loss of 31% of the original weight was determined. Although the crystals lost their glass-like appearance, the rhomobohedral shape was retained.
# The sodium salt of anhydrous N-bromosulfamate was placed back in the vacuum dessicator.
compound,measurement,setting,value
"CC1(C)C(=O)N(Cl)C(=O)N1Br [BCDMH, 1-bromo-3-chloro-5,5-dimethylhydantoin]",Log Reduction in viable bacteria/ml,Pseudomonas aeruginosa,3.3 Log
same,Viable bacteria/ml after 10 minutes,Pseudomonas aeruginosa; inoculum approx. 5×10^6 bacteria/ml,2.5 × 10^3 bacteria/ml
same,Water solubility,[1]; at 20° C.,0.1%
"O=S(=O)([O-])NBr.[Na+] [Example 17, sodium salt of hydrated N-bromosulfamate]","Temperature at which water of crystallization boiled off and product decomposed, evolving bromine vapors",[2],about 221 ° F.
same,Dissolution in water,[3],dissolved rapidly and completely; also recorded: dissolved quickly and completely
O=S(=O)([O-])NBr.[Na+] [sodium salt of anhydrous N-bromosulfamate],Loss of activity on storage,[4],not to have lost any activity
O=c1n(Cl)c(=O)n(Cl)c(=O)n1Cl [trichloroisocyanuric acid],Saturated solution in water,[1]; at 25° C.,1.1 % as Cl2
